Measured values from the NIST ThermoML archive (doi:10.1016/j.jct.2011.01.017).
± gives the expanded uncertainty stated by the source.

Details: Liquid, DSC

CCCCCCCC/C=C\CCCCCCCC(=O)OCC [ethyl (Z)-9-octadeceneoate]
Details | vapor or sublimation pressure [kPa]
486.64 K | 1.33 ± 0.16
500.98 K | 2.67 ± 0.17
508.03 K | 4 ± 0.21
514.61 K | 5.33 ± 0.2
523.69 K | 6.67 ± 0.2
528.56 K | 8 ± 0.21
536.83 K | 9.33 ± 0.19

CCCCCCCCCCCC(=O)OCC [ethyl dodecanoate]
Details | vapor or sublimation pressure [kPa]
420.05 K | 1.33 ± 0.17
432.13 K | 2.67 ± 0.17
443.41 K | 4 ± 0.18
451.05 K | 5.33 ± 0.21
456.47 K | 6.67 ± 0.23
462.44 K | 8 ± 0.29
464.35 K | 9.33 ± 0.57

CCCCCCCCCCCCCCCC(=O)OCC [ethyl hexadecanoate]
Details | vapor or sublimation pressure [kPa]
464.49 K | 1.33 ± 0.15
481.9 K | 2.67 ± 0.16
495.23 K | 4 ± 0.17
502.27 K | 5.33 ± 0.22
508.1 K | 6.67 ± 0.25
512.23 K | 8 ± 0.33
515.13 K | 9.33 ± 0.39

CCCCC/C=C\C/C=C\CCCCCCCC(=O)OCC [ethyl linoleate]
Details | vapor or sublimation pressure [kPa]
486.64 K | 1.33 ± 0.16
501.94 K | 2.67 ± 0.16
510.65 K | 4 ± 0.21
515.7 K | 5.33 ± 0.25
520.91 K | 6.67 ± 0.23
527.47 K | 8 ± 0.19
537.39 K | 9.33 ± 0.18

CCCCCCCCCCCCCCCCCC(=O)OCC [ethyl octadecanoate]
Details | vapor or sublimation pressure [kPa]
490.97 K | 1.33 ± 0.16
505.55 K | 2.67 ± 0.17
512.98 K | 4 ± 0.2
520.56 K | 5.33 ± 0.23
524.45 K | 6.67 ± 0.4
525.78 K | 8 ± 0.81
533.97 K | 9.33 ± 0.19

CCCCCCCCCCCCCC(=O)OCC [ethyl tetradecanoate]
Details | vapor or sublimation pressure [kPa]
446.06 K | 1.33 ± 0.16
460.03 K | 2.67 ± 0.17
470.26 K | 4 ± 0.19
476.75 K | 5.33 ± 0.24
481.32 K | 6.67 ± 0.25
487.01 K | 8 ± 0.24
492.47 K | 9.33 ± 0.24
